Converted amounts (≈) assume the structure as drawn.

Usually AUC stands for the area under the concentration-time curve, a measure of exposure. Broadly, the IC50 is the concentration that gives 50% inhibition. Broadly, the inhibition is the relative decrease from the control value, in per cent. One may read the solubility as how much of the substance goes into solution per volume. Lower therefore signals little dissolved substance. By fraction unbound is commonly meant free concentration divided by total concentration. A lower fraction unbound goes with extensive binding. For orientation: Cmax means the highest concentration seen after dosing. Usually half-life stands for how long it takes for the measured level to halve. Read a low half-life as rapid decline.

The nature of series [1]: AUC in Sprague-Dawley rat at 200 mg/kg, po using crystalline sample during 7 day dose ranging study by LC/MS/MS analysis. The format is ADME, organism-based. The following applies: in vivo.
Series [2] concerns Intestinal mucosa. Nature of the series: Antiinflammatory activity in crohn's disease patient derived inflamed intestinal mucosa assessed as reduction in IL6 production measured after overnight incubation by immunoassay. The series is classed as functional, tissue-based. The following applies: Homo sapiens.
In series [3] the test system is Intestinal mucosa. Briefly: Antiinflammatory activity in crohn's disease patient derived inflamed intestinal mucosa assessed as reduction in IL1beta production measured after overnight incubation by immunoassay. The series is classed as functional, tissue-based. The following applies: Homo sapiens.
The target in series [4] is Nucleotide-binding oligomerization domain-containing protein 2 (Homo sapiens, UniProt Q9HC29). Briefly: Inhibition of NOD2 in human monocytes assessed as reduction in MDP-induced TNFalpha production preincubated for 30 mins followed by MDP-stimulation and measured after 6 hrs by immunoassay. The series is classed as cell-based.
Series [5] in a line: Passive permeability in MDCK cells. The following applies: dog, read-out: permeability. The format is ADME, cell-based, Canis lupus familiaris.
Series [6] in a line: AUC in Sprague-Dawley rat at 2 mg/kg, po by LC/MS/MS analysis. The format is ADME, organism-based. The following applies: in vivo.
A short description of series [7]: Solubility of the compound in FaSSIF measured after 4 hrs. The format is physicochemical.
The target in series [8] is Vascular endothelial growth factor receptor 2 (Homo sapiens) (UniProt P35968). Nature of the series: Inhibition of human VEGFR2 at 1 uM using poly[Glu:Tyr] (4:1) as substrate in presence of [gamma-33P]ATP relative to control.
The target of series [9] is Tyrosine-protein kinase ABL2 (Homo sapiens) (UniProt P42684). Briefly: Inhibition of human ABL2 at 1 uM using EAIYAAPFAKKK as substrate in presence of [gamma-33P]ATP relative to control.
Series [10] can be described thus: Dose normalized AUC in Sprague-Dawley rat at 200 mg/kg, po using crystalline sample during 7 day dose ranging study by LC/MS/MS analysis. The following applies: in vivo, 168 h. The format is ADME, organism-based.
The nature of series [11]: Unbound fraction in minipig blood. The format is ADME, tissue-based, Sus scrofa. The following applies: pig.
A short description of series [12]: Cmax in Sprague-Dawley rat at 20 mg/kg, po using crystalline sample during 7 day dose ranging study by LC/MS/MS analysis. The format is ADME, organism-based. The arrangement: dose 20 mg/kg, route oral. As to conditions: in vivo; call rule not given here.
The test system of series [13] is Intestinal mucosa. Briefly: Antiinflammatory activity in ulcerative colitis patient derived inflamed intestinal mucosa assessed as reduction in IL1beta production measured after overnight incubation by immunoassay. The format is functional, tissue-based. The following applies: Homo sapiens.
A short description of series [14]: Oral bioavailability in Gottingen minipig assessed as 2-((4-(Benzo[d]thiazol-5-ylamino)-6-(tert-butylsulfonyl)quinazolin-7-yl)oxy)ethanol level at 1 mg/kg by LC/MS/MS analysis. The format is ADME, organism-based, Sus scrofa. The following applies: pig, in vivo.
A short description of series [15]: Prodrug conversion in human hepatocytes assessed as 2-(4-(benzo[d]thiazol-5-ylamino)-7-(2-hydroxyethoxy)quinazolin-6-ylsulfonyl)-2-methylpropan-1-ol formation at 20 uM measured after 4 hrs. The series is classed as ADME, cell-based, Hepatocyte.
Series [16] can be described thus: Half life in human intestinal S9 fraction. The series is classed as ADME, subcellular, Intestine.
The nature of series [17]: Terminal half life in Gottingen minipig assessed as 2-((4-(Benzo[d]thiazol-5-ylamino)-6-(tert-butylsulfonyl)quinazolin-7-yl)oxy)ethanol level at 2 mg/kg, po or 1 mg/kg, iv by LC/MS/MS analysis. The format is ADME, organism-based, Sus scrofa. As to conditions: pig, in vivo.
The nature of series [18]: Prodrug conversion in minipig hepatocytes assessed as dephosphorylation at 20 uM measured after 4 hrs. The format is ADME, cell-based, Sus scrofa, Hepatocyte. As to conditions: pig.
A short description of series [19]: Half life in human blood. The series is classed as ADME, tissue-based.
Series [20] in a line: Prodrug conversion in minipig hepatocytes assessed as 2-((4-(Benzo[d]thiazol-5-ylamino)-6-(tert-butylsulfonyl)quinazolin-7-yl)oxy)ethanol formation at 20 uM measured after 4 hrs. The series is classed as ADME, cell-based, Sus scrofa, Hepatocyte. The following applies: pig.
Series [21] is described as follows: Prodrug conversion in minipig hepatocytes assessed as 2-(4-(benzo[d]thiazol-5-ylamino)-7-(2-hydroxyethoxy)quinazolin-6-ylsulfonyl)-2-methylpropan-1-ol formation at 20 uM measured after 4 hrs. The format is ADME, cell-based, Sus scrofa, Hepatocyte. As to conditions: pig.
Series [22] can be described thus: Drug uptake in Beagle dog systemic circulation at 2 mg/kg, po or 0.9 mg/kg, iv by LC/MS/MS analysis. The format is ADME, organism-based, Canis lupus familiaris. The following applies: in vivo.
Series [23] can be described thus: Prodrug conversion in Sprague-Dawley rat hepatic portal vein assessed as 2-((4-(Benzo[d]thiazol-5-ylamino)-6-(tert-butylsulfonyl)quinazolin-7-yl)oxy)ethanol formation. The series is classed as ADME. As to conditions: in vivo.
Series [24] can be described thus: Cmax in Sprague-Dawley rat assessed as 2-((4-(Benzo[d]thiazol-5-ylamino)-6-(tert-butylsulfonyl)quinazolin-7-yl)oxy)ethanol level at 2 mg/kg, po by LC/MS/MS analysis. The format is ADME, organism-based. Also noted: dose 2 mg/kg, route oral. The following applies: in vivo.
Series [25] is described as follows: Volume of distribution at steady state in Sprague-Dawley rat assessed as 2-((4-(Benzo[d]thiazol-5-ylamino)-6-(tert-butylsulfonyl)quinazolin-7-yl)oxy)ethanol level at 2 mg/kg, po or 1.1 mg/kg, iv by LC/MS/MS analysis. As to conditions: in vivo. The format is ADME, organism-based.
Series [26] is described as follows: Prodrug conversion in rat hepatocytes assessed as 2-(4-(benzo[d]thiazol-5-ylamino)-7-(2-hydroxyethoxy)quinazolin-6-ylsulfonyl)-2-methylpropan-1-ol formation at 20 uM measured after 4 hrs. The series is classed as ADME, cell-based, Hepatocyte.
Series [27] is described as follows: Prodrug conversion in human hepatocytes assessed as 2-(4-(benzo[d]thiazol-5-ylamino)-6-(tert-butylsulfonyl)quinazolin-7-yloxy)acetic acid formation at 20 uM measured after 4 hrs. The format is ADME, cell-based, Hepatocyte.
The nature of series [28]: Prodrug conversion in human hepatocytes assessed as hydrogenation at 20 uM measured after 4 hrs. The series is classed as ADME, cell-based, Hepatocyte.
A short description of series [29]: Half life in rat intestinal S9 fraction. The format is ADME, subcellular, Intestine.
Series [30] can be described thus: Prodrug conversion in rat hepatocytes assessed as (2S,3S,4S,5R,6R)-6-(2-(4-(benzo[d]thiazol-5-ylamino)-6-(tert-butylsulfonyl)quinazolin-7-yloxy)ethoxy)-3,4,5-trihydroxytetrahydro-2H-pyran-2-carboxylic acid formation at 20 uM measured after 4 hrs. The series is classed as ADME, cell-based, Hepatocyte.
The nature of series [31]: Drug uptake in Han Wistar rat colon at 2 mg/kg, iv administered as infusion for 4 hrs. The format is ADME, organism-based. The following applies: in vivo.
Series [32] is described as follows: AUC in Beagle dog assessed as 2-((4-(Benzo[d]thiazol-5-ylamino)-6-(tert-butylsulfonyl)quinazolin-7-yl)oxy)ethanol level at 2 mg/kg, po by LC/MS/MS analysis. As to conditions: in vivo. The format is ADME, organism-based, Canis lupus familiaris.
Series [33] is described as follows: Prodrug conversion in mouse blood assessed as 2-((4-(Benzo[d]thiazol-5-ylamino)-6-(tert-butylsulfonyl)quinazolin-7-yl)oxy)ethanol formation at 0.25 to 145 mg/kg, po administered twice daily via gavage for 8 days. The series is classed as ADME, organism-based. As to conditions: in vivo, 192 h.
Series [34] is described as follows: Prodrug conversion in Sprague-Dawley rat intestine assessed as 2-((4-(Benzo[d]thiazol-5-ylamino)-6-(tert-butylsulfonyl)quinazolin-7-yl)oxy)ethanol formation at 2 mg/kg, po or 0.5 mg/kg, iv measured at 15 to 120 mins post dose. As to conditions: in vivo. The format is ADME, organism-based.
Series [35] in a line: Drug uptake in Han Wistar rat brain at 2 mg/kg, iv administered as infusion for 4 hrs. The series is classed as ADME, organism-based. As to conditions: in vivo.
Series [36] in a line: Half life in dog blood. The series is classed as ADME, tissue-based, Canis lupus familiaris.

Sequence of Nucleotide-binding oligomerization domain-containing protein 2 (Q9HC29 whole entry, the tested form may be a part): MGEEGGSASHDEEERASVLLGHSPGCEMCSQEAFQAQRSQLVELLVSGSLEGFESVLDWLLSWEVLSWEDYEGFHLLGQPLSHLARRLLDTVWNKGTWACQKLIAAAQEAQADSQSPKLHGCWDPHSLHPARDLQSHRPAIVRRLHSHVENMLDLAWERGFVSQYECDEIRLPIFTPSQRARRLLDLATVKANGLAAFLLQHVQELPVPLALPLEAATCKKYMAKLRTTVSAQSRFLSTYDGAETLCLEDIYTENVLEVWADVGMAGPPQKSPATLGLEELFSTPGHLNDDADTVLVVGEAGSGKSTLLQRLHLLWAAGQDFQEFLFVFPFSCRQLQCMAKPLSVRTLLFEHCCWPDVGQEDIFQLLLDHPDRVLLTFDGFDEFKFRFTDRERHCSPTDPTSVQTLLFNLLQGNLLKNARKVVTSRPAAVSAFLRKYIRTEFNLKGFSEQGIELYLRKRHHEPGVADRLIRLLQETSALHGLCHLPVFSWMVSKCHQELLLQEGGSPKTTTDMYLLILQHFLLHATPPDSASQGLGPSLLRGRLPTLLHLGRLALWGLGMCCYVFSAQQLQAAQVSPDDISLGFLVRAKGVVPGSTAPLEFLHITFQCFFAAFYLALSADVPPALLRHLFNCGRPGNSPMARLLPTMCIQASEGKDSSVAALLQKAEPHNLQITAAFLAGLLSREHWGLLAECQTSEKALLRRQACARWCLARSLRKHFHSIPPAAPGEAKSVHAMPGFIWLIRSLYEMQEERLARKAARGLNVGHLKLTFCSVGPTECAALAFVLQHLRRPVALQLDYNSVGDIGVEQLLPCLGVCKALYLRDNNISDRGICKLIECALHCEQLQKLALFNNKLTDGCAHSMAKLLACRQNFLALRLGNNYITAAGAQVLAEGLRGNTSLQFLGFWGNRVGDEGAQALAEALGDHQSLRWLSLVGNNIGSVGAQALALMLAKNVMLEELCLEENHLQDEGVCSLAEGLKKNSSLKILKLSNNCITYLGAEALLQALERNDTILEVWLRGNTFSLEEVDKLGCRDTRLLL
Sequence of Vascular endothelial growth factor receptor 2 (Homo sapiens) (P35968 whole entry): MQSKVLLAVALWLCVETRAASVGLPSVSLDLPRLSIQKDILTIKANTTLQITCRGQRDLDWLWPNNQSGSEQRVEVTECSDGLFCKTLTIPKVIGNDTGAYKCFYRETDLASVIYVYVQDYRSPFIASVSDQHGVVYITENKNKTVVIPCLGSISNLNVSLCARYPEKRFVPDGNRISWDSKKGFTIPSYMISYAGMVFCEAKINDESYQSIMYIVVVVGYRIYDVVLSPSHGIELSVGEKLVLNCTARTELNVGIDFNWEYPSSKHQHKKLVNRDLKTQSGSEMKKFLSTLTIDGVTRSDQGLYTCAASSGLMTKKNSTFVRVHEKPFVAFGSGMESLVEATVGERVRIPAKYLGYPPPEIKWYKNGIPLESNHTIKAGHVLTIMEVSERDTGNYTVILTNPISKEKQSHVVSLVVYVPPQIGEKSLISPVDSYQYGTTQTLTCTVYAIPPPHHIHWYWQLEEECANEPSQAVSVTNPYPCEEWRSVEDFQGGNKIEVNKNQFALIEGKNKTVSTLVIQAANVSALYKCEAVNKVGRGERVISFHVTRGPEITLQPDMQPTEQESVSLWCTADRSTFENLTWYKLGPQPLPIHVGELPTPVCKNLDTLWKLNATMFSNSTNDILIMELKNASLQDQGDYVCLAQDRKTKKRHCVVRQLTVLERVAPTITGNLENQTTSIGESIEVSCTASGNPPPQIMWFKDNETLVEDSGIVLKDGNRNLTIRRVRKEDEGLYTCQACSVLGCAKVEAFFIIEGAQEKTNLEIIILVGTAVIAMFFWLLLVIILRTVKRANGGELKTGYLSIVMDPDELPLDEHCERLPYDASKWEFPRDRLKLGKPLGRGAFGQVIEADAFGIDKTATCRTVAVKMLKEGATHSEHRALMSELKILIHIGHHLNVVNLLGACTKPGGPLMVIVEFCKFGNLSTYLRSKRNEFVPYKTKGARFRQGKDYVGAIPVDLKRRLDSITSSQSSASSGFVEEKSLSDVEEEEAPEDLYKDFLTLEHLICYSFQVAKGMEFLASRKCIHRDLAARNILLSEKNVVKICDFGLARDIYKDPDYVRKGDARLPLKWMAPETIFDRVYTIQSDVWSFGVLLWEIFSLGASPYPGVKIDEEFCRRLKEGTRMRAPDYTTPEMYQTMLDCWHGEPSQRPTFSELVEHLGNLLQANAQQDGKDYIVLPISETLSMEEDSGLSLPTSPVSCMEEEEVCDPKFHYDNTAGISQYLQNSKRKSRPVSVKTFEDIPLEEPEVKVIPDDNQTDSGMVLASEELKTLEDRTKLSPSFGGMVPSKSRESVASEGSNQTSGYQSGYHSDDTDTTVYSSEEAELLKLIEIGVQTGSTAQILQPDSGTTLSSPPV
Sequence of Tyrosine-protein kinase ABL2 (Homo sapiens) (P42684 whole entry): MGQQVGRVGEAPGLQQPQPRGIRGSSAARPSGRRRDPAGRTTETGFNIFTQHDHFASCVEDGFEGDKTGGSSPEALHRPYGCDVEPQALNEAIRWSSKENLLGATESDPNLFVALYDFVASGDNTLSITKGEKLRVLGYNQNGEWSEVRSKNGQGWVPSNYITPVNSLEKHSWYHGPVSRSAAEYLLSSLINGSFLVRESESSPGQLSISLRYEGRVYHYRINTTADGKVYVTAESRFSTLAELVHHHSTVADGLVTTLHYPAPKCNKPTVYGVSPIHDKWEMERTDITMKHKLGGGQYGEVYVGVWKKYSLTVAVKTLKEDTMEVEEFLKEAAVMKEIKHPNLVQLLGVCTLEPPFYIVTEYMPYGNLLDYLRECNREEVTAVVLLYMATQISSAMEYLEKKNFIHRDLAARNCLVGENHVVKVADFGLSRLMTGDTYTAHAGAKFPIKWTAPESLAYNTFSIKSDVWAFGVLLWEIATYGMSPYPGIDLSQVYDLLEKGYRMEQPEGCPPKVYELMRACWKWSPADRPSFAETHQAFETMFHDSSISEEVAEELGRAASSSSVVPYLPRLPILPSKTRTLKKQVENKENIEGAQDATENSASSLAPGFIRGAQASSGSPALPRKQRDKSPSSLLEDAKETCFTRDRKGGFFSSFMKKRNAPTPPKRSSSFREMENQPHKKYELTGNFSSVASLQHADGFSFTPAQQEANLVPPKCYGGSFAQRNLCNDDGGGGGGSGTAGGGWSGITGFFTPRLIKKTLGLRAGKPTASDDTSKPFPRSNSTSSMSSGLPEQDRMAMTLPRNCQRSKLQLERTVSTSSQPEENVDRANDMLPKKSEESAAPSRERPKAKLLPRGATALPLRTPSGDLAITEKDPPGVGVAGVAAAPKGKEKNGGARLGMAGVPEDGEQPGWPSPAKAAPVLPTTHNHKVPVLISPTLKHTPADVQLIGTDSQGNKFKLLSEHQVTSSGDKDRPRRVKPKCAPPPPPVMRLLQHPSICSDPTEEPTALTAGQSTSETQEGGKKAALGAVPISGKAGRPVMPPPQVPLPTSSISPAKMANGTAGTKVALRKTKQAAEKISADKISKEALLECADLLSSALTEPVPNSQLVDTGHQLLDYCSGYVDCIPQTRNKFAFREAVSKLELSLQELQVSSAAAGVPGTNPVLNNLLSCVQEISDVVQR

As to `CC(C)(C)S(=O)(=O)c1cc2c(Nc3ccc4scnc4c3)ncnc2cc1OCCO`, the AUC at 168 h in series [1] was determined as 41400 ng·h/mL. Further, the Activity result in series [2], in [3] and in [13] was “Dose-dependent effect” in each case. Also, the IC50 in series [2], in [3] and in series [13] was 10 nM throughout. Besides, the inhibition entry in [4] is “Dose-dependent effect”; in series [8] it was 70 to 90%; in series [9] it was 70 to 90%. In series [5], the Papp worked out at 16.6 ×10⁻⁶ cm/s. In addition, the AUC in series [6] came to 460 ng·h/mL. Besides, the solubility at 4 h in [7] was 4 µg/mL (≈ 8.72 µM). The molecule also registered an AUC/dose in series [10] of 0.21 kg·h/L. In series [11], this molecule yielded a fraction unbound of 0.068. For the same molecule, the Cmax in series [12] came to 900 ng/mL.

For the molecule `CC(C)(C)S(=O)(=O)c1cc2c(Nc3ccc4scnc4c3)ncnc2cc1OCCOP(=O)(O)O.[CaH2]`, the F in series [14] is recorded as 58%. Besides, the Drug metabolism result in series [15], in series [18], in [20], in [21], in [23] and in [26] was “Metabolite_Detected” each time. The Drug metabolism entry in [27], in series [28], in series [30], in series [33] and in series [34] was “Metabolite_Detected” each time. Also, the half-life in series [16] is 18.3 min; in series [19], 25 min; in series [29], 3.3 min; in series [36], 21 min. In addition, in [17], the “beta t1/2” value turned out to be 252 min. The Drug uptake entry in [22], in series [31] and in [35] was “Not Active” each time. Besides, the Cmax in [24] was determined as 170 ng/mL. Moreover, in series [25], the Vdss worked out at 2.1 L/kg. Moreover, the AUC in series [32] stood at 4400 ng·h/mL.

The record behind these values is ChEMBL document CHEMBL4364295, “Discovery of a First-in-Class Receptor Interacting Protein 2 (RIP2) Kinase Specific Clinical Candidate, 2-((4-(Benzo[d]thiazol-5-ylamino)-6-(tert-butylsulfonyl)quinazolin-7-yl)oxy)ethyl Dihydrogen Phosphate, for the Treatment of Inflammatory Diseases” (J Med Chem, 2019).
